The test system of the test is RSV (RSS strain). As to the kind of experiment: RSV ELISA antigen reduction assay in Hep-2 cells. In kind it is cell-based, Respiratory Syncytial Virus. Conditions: RSV-infected Hep-2 cells, 3 day assay, ELISA OD 490 nm, 7-point dilution 50 μM-0.78 μM. The protocol:
This was quantified by optical density (OD) measurement.
This assay was set up using all 96 wells of flat-bottomed 96-well plates. The outer wells were not subjected to any greater amount of evaporation than the inner wells during the 3 day assay period. (i.e. No “edge effect” seen).
Plates were set up one day before addition of virus and compounds. The assay then ran for 3 days with ELISA development taking place on the 4th day.
All 96 wells of a microtitre plate were seeded at a density of 4×10^3 Hep-2 cells/well in 100 μl/well of Growth Medium (GM) consisting of Dulbecco's MEM (DMEM) with Glutamax-1, Sodium Pyruvate, 1000 mg/l glucose and pyridoxine (Invitrogen, catalogue number 21885-025) and supplemented with 10% FBS. (See Plate 1).
A frozen vial of RSV (RSS strain provided by Virogen Ltd) stock solution was removed from the −80 freezer or liquid nitrogen store and diluted to a known Multiplicity of Infection (m.o.i) in Growth Medium.
The m.o.i. was calculated by prior titration of the virus stock (by the ELISA assay method) as the virus input required to achieve a window of at least 0.8 OD units between infected and uninfected control wells.
50 μl of diluted virus was added to infected, “virus+”, wells by multichannel pipette; 50 μl of Growth Medium was added to uninfected, cell control wells (CC) by multichannel pipette. (See Plate 2)
Plates were incubated at 37° C. for 1 hr to allow virus adsorption.
Compounds were made up at 4× strength in GM containing 2% DMSO (a final DMSO concentration in the assay of 0.5%).
Six compounds were tested on each assay plate as illustrated below. (See Plate 3). Compounds were tested in duplicate wells across a 7-point dilution series (from 50 μM-0.78 μM): in the presence of virus.
Virus infected, untreated wells served as the virus control (VC); Uninfected, untreated wells serve as the cell control (CC). The difference in absorbance between CC and VC wells constitutes the assay window.
200 μl of GM containing 2% DMSO was added to all wells except the ‘50 μM’ or first column, to which 392 μl of GM was added. 8 μl of each test compound was cherry-picked from a thawed Arrow screening plate and transferred to the appropriate well in the ‘50 μM’ column. Since the compound stock was at 10 mM in 100% DMSO, this will maintain the DMSO level at 2% at the top compound concentration.
Using a multichannel pipette, 200 μl was transferred from the 50 μM column to the 25 μM column, then to the 12.5 μM column and so on across the dilution plate creating a serial doubling dilution. Compounds were mixed upon transfer and tips changed between transfers, ensuring also that no compound was transferred to the last column of compound-free wells (0 μM).
The dilution plate was turned lengthways and 50 μl of compound easily transferred by multichannel pipette from the dilution plate to the assay plate, column by column. There was therefore an excess of 100 μl remaining in the dilution plate.
Plates were incubated at 37° C., 5% CO2 for 3 days.
Media was tapped out from wells directly into Virkon (1% solution in water) and plates were washed by immersing in a plastic box containing PBS. 50 μl/well of 75%/25% vol/vol acetone/methanol fixative was added by multichannel pipette and left for 3 mins.
Some 200 μl of blocking solution (2% Marvel in PBS containing 0.05% Tween) was added per well by multichannel pipette. Plates were incubated at 37° C. in a shaking incubator for 60 mins.
RSV mouse monoclonal antibody NCL-RSV3 (Novocastra) was diluted 1/400 in PBS/2% Marvel/0.05% Tween and 50 μl was added per well. Plates were incubated at 37° C. in a shaking incubator for 90 mins.
DAKo rabbit anti-mouse HRP conjugate (DAKO catalogue number P0260) was diluted 1/1000 in PBS/2% Marvel/0.05% Tween and 50 μl was added per well. Plates were incubated at 37° C. in a shaking incubator for 60 mins.
Substrate (SigmaFast OPD) was prepared in advance by dissolving 1 urea tablet in 20 mL water. […]
In general terms: ELISA stands for enzyme-linked immunosorbent assay.

Where [1] appears, read: human respiratory syncytial virus, 72 h.

Where only a bound is given, the exact number is not on record here.

For the compound `O=C(N[C@H]1N=C(c2ccccc2)c2ccccc2NC1=O)c1ccc(N2CCS(=O)(=O)CC2)cc1Cl` [Example 35, (S)-2-Chloro-4-(1,1-dioxo-1λ6-thiomorpholin-4-yl)-N-(2-oxo-5-phenyl-2,3-dihydro-1H-benzo[e][1,4]diazepin-3-yl)-benzamide], the IC50 under setting [1] is less than 5 µM.
Consider `O=C(N[C@H]1N=C(c2ccccc2)c2ccccc2NC1=O)c1cc(C(F)(F)F)ccc1N1CCCC1` [Example 19, (S)—N-(2-Oxo-5-phenyl-2,3-dihydro-1H-benzo[e][1,4]diazepin-3-yl)-2-pyrrolidin-1-yl-5-trifluoromethyl-benzamide], for which, under setting [1], the IC50 was less than 5 µM.
`O=C(N[C@H]1N=C(c2ccccc2)c2ccccc2NC1=O)c1ccc(CN2CCS(=O)(=O)CC2)o1` [Example 34, (S)-5-(1,1-Dioxo-1λ6-thiomorpholin-4-ylmethyl)-furan-2-carboxylic acid (2-oxo-5-phenyl-2,3-dihydro-1H-benzo[e][1,4]diazepin-3-yl)-amide] had an IC50 under setting [1] of less than 5 µM.
Compound `CN(CCS(C)(=O)=O)Cc1ccc(C(=O)N[C@H]2N=C(c3ccccc3)c3ccccc3NC2=O)o1` [Example 37] had an IC50 of less than 5 µM.
`O=C(N[C@H]1N=C(c2ccccc2)c2ccccc2NC1=O)c1ccc(N2CCOCC2)cc1Cl` [Example 4, (S)-2-Chloro-4-morpholin-4-yl-N-(2-oxo-5-phenyl-2,3-dihydro-1H-benzo[e][1,4]diazepin-3-yl)-benzamide] had an IC50 under setting [1] of less than 5 µM.
Take `O=C(N[C@H]1N=C(c2ccccc2)c2ccccc2NC1=O)c1ccc(-c2ccccn2)s1` [Example 45, (S)-5-Pyridin-2-yl-thiophene-2-carboxylic acid (2-oxo-5-phenyl-2,3-dihydro-1H-benzo[e][1,4]diazepin-3-yl)-amide]: the 50% inhibitory concentration (IC50) under setting [1] is less than 5 µM.
Regarding `O=C(N[C@H]1N=C(c2ccccc2)c2ccccc2NC1=O)c1cc(CN2CCOCC2)on1` [Example 43, (S)-5-Morpholin-4-ylmethyl-isoxazole-3-carboxylic acid (2-oxo-5-phenyl-2,3-dihydro-1H-benzo[e][1,4]diazepin-3-yl)-amide], the IC50 under setting [1] was less than 5 µM.
In the case of `Cc1cccc(N2CCS(=O)(=O)CC2)c1C(=O)N[C@H]1N=C(c2ccccc2)c2ccccc2NC1=O` [Example 25, (S)-2-(1,1-Dioxo-1λ6-thiomorpholin-4-yl)-6-methyl-N-(2-oxo-5-phenyl-2,3-dihydro-1H-benzo[e][1,4]diazepin-3-yl)-benzamide], the IC50 under setting [1] is greater than 10 µM.
As to `O=C(N[C@H]1N=C(c2ccccc2)c2ccccc2NC1=O)c1ccc(N2CCOCC2)nc1` [Example 47, (S)-6-Morpholin-4-yl-N-(2-oxo-5-phenyl-2,3-dihydro-1H-benzo[e][1,4]diazepin-3-yl)-nicotinamide], the IC50 under setting [1] is less than 5 µM.
Under setting [1], `Cc1ccc(C(=O)N[C@H]2N=C(c3ccccc3)c3ccccc3NC2=O)c(N2CCS(=O)(=O)CC2)c1` [Example 24, (S)-2-(1,1-Dioxo-1λ6-thiomorpholin-4-yl)-4-methyl-N-(2-oxo-5-phenyl-2,3-dihydro-1H-benzo[e][1,4]diazepin-3-yl)-benzamide] came in with an IC50 of less than 5 µM.
The same measure, in the same setting: the value for `CN1CCN(S(=O)(=O)c2cccc(C(=O)N[C@H]3N=C(c4ccccc4)c4ccccc4NC3=O)c2)CC1` [Example 28, (S)-3-(4-Methyl-piperazine-1-sulfonyl)-N-(2-oxo-5-phenyl-2,3-dihydro-1H-benzo[e][1,4]diazepin-3-yl)-benzamide] was greater than 10 µM; that for `O=C(N[C@H]1N=C(c2ccccc2)c2ccccc2NC1=O)c1cc(C(F)(F)F)ccc1N1CCOCC1` [Example 20, (S)-2-Morpholin-4-yl-N-(2-oxo-5-phenyl-2,3-dihydro-1H-benzo[e][1,4]diazepin-3-yl)-5-trifluoromethyl-benzamide] was greater than 10 µM.
`O=C(N[C@H]1N=C(c2ccccc2)c2ccccc2NC1=O)c1ccc(F)cc1N1CCOCC1` [Example 13, (S)-4-Fluoro-2-morpholino-4-yl-N-(2-oxo-5-phenyl-2,3-dihydro-1H-benzo[e][1,4]diazepin-3-yl)-benzamide] had an IC50 of 5 to 10 µM.

In general, IC50 refers to the concentration at which inhibition is half-maximal. A low value points to greater potency in that assay.

The values are drawn from patent US20080139536A1, “Benzodiazepines for Treating or Preventing Rsv Infection” (Novartis Pharmaceuticals Corporation, priority 2004, published 2008).
